Type in all cases: cell-based
For assay [1], the system named is HCT-116 cells. Briefly: MTT cytotoxicity assay, HCT-116. Conditions: Homo sapiens, incubation time 24 h, mean ± SD (n = 3).
Assay [2] relates to MCF-7 cells. Nature of the assay: MTT cytotoxicity assay, MCF-7. Conditions: Homo sapiens, MCF7, incubation time 72 h, mean ± SD (n = 3). The method, then:
(§1) In vitro cytotoxicity studies of the obtained building blocks and glycoconjugates were carried out on cell lines characterized by the high expression of GLUT transporters and the strongly changed glucose metabolism (strong Warburg effect). […] Cytotoxicity was evaluated using the MTT assay.
The human cell line MCF-7 was obtained from collections at the Maria Sklodowska-Curie Memorial Cancer Center and Institute of Oncology, branch in Gliwice, Poland. […] The culture media were purchased from EuroClone and HyClone. Fetal bovine serum (FBS) was delivered by EURx, Poland, and Antibiotic Antimycotic Solution (100×) by Sigma-Aldrich, Germany. The cells were cultured under standard conditions at 37 °C in a humidified atmosphere at 5% CO2.
(§2) The viability of the cells was determined using an MTT (3-[4,5–dimethylthiazol-2-yl]-2,5-diphenyltetrazolium bromide) test (Sigma-Aldrich). Stock solutions of tested compounds were prepared in DMSO and diluted with the appropriate volumes of the growth medium directly before the experiment. […] The cell cultures were incubated for 24 h at 37 °C in a humidified atmosphere of 5% CO2. Then, the culture medium was removed, replaced with the solution of the tested compounds in medium with varying concentrations, and incubated for further 24 h or 72 h. After that, the medium was removed, and the MTT solution (50 µL, 0.5 mg/mL in PBS) was added. After 3 h of incubation, the MTT solution was removed, and the precipitated formazan was dissolved in DMSO. Finally, the absorbance at the 570 nm wavelength was measured spectrophotometrically with the plate reader. The experiment was conducted in at least three independent iterations with four technical repetitions. The IC50 values were calculated using CalcuSyn software (version 2.0, Biosoft, Cambridge, UK).

Assay [3] has as its system Normal Human Dermal Fibroblasts-Neonatal (NHDF-Neo). Briefly: MTT cytotoxicity assay, NHDF-Neo. The following applies: incubation time 24 h, mean ± SD (n = 3). On the procedure: as §1
[…] […] The culture media were purchased from EuroClone and HyClone. Fetal bovine serum (FBS) was delivered by EURx, Poland, and Antibiotic Antimycotic Solution (100×) by Sigma-Aldrich, Germany. The cells were cultured under standard conditions at 37 °C in a humidified atmosphere at 5% CO2.
as §2

The test system of assay [4] is HCT-116 cells. Briefly: Influence of metal ions on cellular proliferation (MTT with Cu2+), HCT-116. The following applies: Homo sapiens, MTT assay, 24 h, addition of copper acetate at 100 µM. On the procedure: (§3) Cultured cancer cells, in contrast to in vivo environment, are characterized by a low copper level. Therefore, additional experiments were carried out for compounds whose expected mechanism of action is based on the chelation of metal ions. The antiproliferative activities of glycoconjugates 67, 68, 70, and 71 were tested in the presence of Cu^2+ ions. The effect of the interaction of glycoconjugate complexes with metal ions on cell proliferation was measured by adding a copper salt solution to the growth medium and observing the rate of cell growth compared to copper-untreated cells.
(§4) During the appropriate experiments, the cells (MCF-7, HCT-116, and NHDF-Neo) were treated with solutions of glycoconjugate 67, 68, 70, or 71 in medium culture, supplemented with 100 µM copper acetate, and then their proliferation was measured by the MTT assay. The control system was cells suspended in medium supplemented with DMSO in the amount used to dissolve the compounds and the addition of the same amount of copper. […] The highest cytotoxic activity of the compounds was observed against the MCF-7 cell line. […] This confirmed the strong sensitivity of breast cancer cells to 8-HQ derivatives.
(§5) The cells were seeded into 96-well plates at concentration 1 × 10^4 (HCT 116, NHDF-Neo) or 5 × 10^3 (MCF-7) per well. The cell cultures were incubated for 24 h at 37 °C in a humidified atmosphere of 5% CO2. Then, the culture medium was removed, replaced with the solution of the tested compounds in medium with varying concentrations. Additionally, 100 µM solution of Cu(CH3COO)2 was added into wells with tested compounds. After 24 h or 72 h incubation, the MTT assay was performed.

The subject of assay [5] is MCF-7 cells. Nature of the assay: Influence of metal ions on cellular proliferation (MTT with Cu2+), MCF-7. Conditions: Homo sapiens, MCF7; MTT assay, 72 h, addition of copper acetate at 100 µM. The method, then:
as §3, §4
It can be seen that the greatest differences in cell survival occurred in the case of MCF-7 cell lines. A significant decrease in the proliferation of MCF-7 cells was observed after treatment with glycoconjugates at a concentration of 50 µM in the presence of Cu^2+ (cell viability 10–28%), compared to experiments with glycoconjugates alone. In this case, the cytotoxicity of glycoconjugates increased about three-fold in the presence of Cu(II) ions. […] For HCT-116 and NHDF-Neo cell lines, only slight differences in cell viability were observed after treatment with free compounds and when […] ions were added.
as §5

The test system of assay [6] is Normal Human Dermal Fibroblasts-Neonatal (NHDF-Neo). Nature of the assay: Influence of metal ions on cellular proliferation (MTT with Cu2+), NHDF-Neo. Conditions: MTT assay, 24 h, addition of copper acetate at 100 µM. On the procedure: as §3, §4, §5

A value given as a limit tells only on which side of the number the result lay.

The source of these data is paper PMC7570910, “8-Hydroxyquinoline Glycoconjugates Containing Sulfur at the Sugar Anomeric Position—Synthesis and Preliminary Evaluation of Their Cytotoxicity” (Molecules, 2020).

For the compound `CC(=O)OC[C@H]1O[C@@H](Sc2ccc(NC(=O)Cn3cc(COc4cccc5cccnc45)nn3)cn2)[C@H](OC(C)=O)[C@@H](OC(C)=O)[C@@H]1OC(C)=O` [Compound 67], the IC50 in assay [1] was 146 ± 3.49 µM; in assay [2], 69.7 ± 3.5 µM; in assay [3], 71.8 ± 6.7 µM; in assay [4], 74.5 ± 0.16 µM; in assay [5], 28.9 ± 1.52 µM; in assay [6], 71.4 ± 1.35 µM.

With `CC(=O)OC[C@H]1O[C@@H](Sc2ccc(NC(=O)CN=[N+]=[N-])cn2)[C@H](OC(C)=O)[C@@H](OC(C)=O)[C@@H]1OC(C)=O` [Compound 33, (5-azidoacetamide-2-pyridyl) 2,3,4,6-tetra-O-acetyl-1-thio-β-D-glucopyranoside], the IC50 in assay [1] was 13.39 ± 0.1 µM; in assay [2], 6.39 ± 0.07 µM; in assay [3] it was 11.2 ± 0.31 µM.

As for `O=C(Nc1ccc(S[C@@H]2O[C@H](CO)[C@@H](O)[C@H](O)[C@H]2O)nc1)OCc1cn(CCCOc2cccc3cccnc23)nn1` [Compound 72], the IC50 in assay [1] was more than 800 µM; in assay [2], 739.2 ± 3.79 µM; in assay [3] it was more than 800 µM.

For `Oc1cccc2cccnc12` [Compound 8HQ, 8-hydroxyquinoline], the figures for the concentration for half-maximal inhibition (IC50) in assay [1], in assay [2] and in assay [3] were more than 800 µM, 0.24 ± 0.01 µM and more than 800 µM, respectively.

Turning to `Cc1ccc2cccc(OCCCn3cc(CS[C@@H]4O[C@H](CO)[C@@H](O)[C@H](O)[C@H]4O)nn3)c2n1` [Compound 65], the IC50 in assay [1] and in assay [2] was more than 800 µM throughout.

For the compound `C#CCOC(=O)Nc1ccc(S[C@@H]2O[C@H](CO)[C@@H](O)[C@H](O)[C@H]2O)nc1` [Compound 38], the IC50 in assay [1] and in assay [2] was more than 800 µM each time.

For the compound `[N-]=[N+]=NCC(=O)Nc1ccc(S[C@@H]2O[C@H](CO)[C@@H](O)[C@H](O)[C@H]2O)nc1` [Compound 35, (5-azidoacetamide-2-pyridyl) 1-thio-β-D-glucopyranoside], the IC50 in assay [1] and in assay [2] was more than 800 µM in each case.

Turning to `Cc1ccc2cccc(OCCCn3cc(CS[C@@H]4O[C@H](CO)[C@H](O)[C@H](O)[C@H]4O)nn3)c2n1` [Compound 66], the IC50 in assay [1] and in assay [2] was more than 800 µM throughout.

Turning to `OC[C@H]1O[C@@H](SCc2cn(CCCOc3cccc4cccnc34)nn2)[C@H](O)[C@@H](O)[C@@H]1O` [Compound 63], the IC50 in assay [1] and in assay [2] was more than 800 µM in each case.

`C#CCOC(=O)Nc1ccc(S[C@@H]2O[C@H](COC(C)=O)[C@H](OC(C)=O)[C@H](OC(C)=O)[C@H]2OC(C)=O)nc1` [Compound 37]: the IC50 in assay [1] stood at 456.7 ± 3.85 µM; in assay [2], 392 ± 5.29 µM.

With `CC(=O)OC[C@H]1O[C@@H](SCc2cn(CCCOc3cccc4cccnc34)nn2)[C@H](OC(C)=O)[C@@H](OC(C)=O)[C@@H]1OC(C)=O` [Compound 59], the IC50 in assay [1] was determined as 173 ± 3.48 µM; in assay [2] it was 153.3 ± 0.25 µM; in assay [3], 229.1 ± 2.06 µM.

For `CC(=O)OC[C@H]1O[C@@H](Sc2ccc(NC(=O)CN=[N+]=[N-])cn2)[C@H](OC(C)=O)[C@@H](OC(C)=O)[C@H]1OC(C)=O` [Compound 34, (5-azidoacetamide-2-pyridyl) 2,3,4,6-tetra-O-acetyl-1-thio-β-D-galactopyranoside], the IC50 in assay [1] worked out at 541.4 ± 3.73 µM; in assay [2] it was 383 ± 4.23 µM.

Compound `Cc1ccc2cccc(O)c2n1` [Compound 2Me8HQ, 8-hydroxyquinaldine, reference compound] had an IC50 in assay [1] of more than 800 µM.

Turning to `COc1cccc2c1C(=O)c1c(O)c3c(c(O)c1C2=O)C[C@@](O)(C(=O)CO)C[C@@H]3O[C@H]1C[C@H](N)[C@H](O)[C@H](C)O1` [Doxorubicin, reference compound], the values for the IC50 in assay [1], in assay [2] and in assay [3] were 5.59 ± 0.14 µM, 0.67 ± 0.01 µM and more than 20 µM, respectively.

On to `CC(=O)OC[C@H]1O[C@@H](SCc2cn(CCCOc3cccc4ccc(C)nc34)nn2)[C@H](OC(C)=O)[C@@H](OC(C)=O)[C@H]1OC(C)=O` [Compound 62], for which the IC50 in assay [1] was found to be 324 ± 1.61 µM; in assay [2] it was 244 ± 3.04 µM; in assay [3], 667.6 ± 6.43 µM.

As to `CC(=O)OC[C@H]1O[C@@H](SCc2cn(CCCOc3cccc4cccnc34)nn2)[C@H](OC(C)=O)[C@@H](OC(C)=O)[C@H]1OC(C)=O` [Compound 60], the figures for the IC50 in assay [1], in assay [2] and in assay [3] were 304.8 ± 1.34 µM, 212 ± 3.46 µM and 421.2 ± 0.14 µM, respectively.

As to `CC(=O)OC[C@H]1O[C@@H](Sc2ccc(NC(=O)OCc3cn(CCCOc4cccc5cccnc45)nn3)cn2)[C@H](OC(C)=O)[C@@H](OC(C)=O)[C@@H]1OC(C)=O` [Compound 70], the IC50 in assay [1] was determined as 63.5 ± 2.37 µM; in assay [2], 67.5 ± 1.58 µM; in assay [3], 64 ± 5.34 µM; in assay [4] it was 73.9 ± 2.99 µM; in assay [5], 25.9 ± 1.76 µM; in assay [6] it was 68.4 ± 1.11 µM.

`C#CCOC(=O)Nc1ccc(S[C@@H]2O[C@H](COC(C)=O)[C@@H](OC(C)=O)[C@H](OC(C)=O)[C@H]2OC(C)=O)nc1` [Compound 36, (5-(((prop-2-yn-1-yloxy)carbonyl)amino)-2-pyridyl) 2,3,4,6-tetra-O-acetyl-1-thio-β-D-glucopyranoside]: the IC50 worked out at 125 ± 8.98 µM in assay [1], 38.3 ± 2.44 µM in assay [2] and 41.7 ± 3.4 µM in assay [3].

Regarding `CC(=O)OC[C@H]1O[C@@H](SCc2cn(CCCOc3cccc4ccc(C)nc34)nn2)[C@H](OC(C)=O)[C@@H](OC(C)=O)[C@@H]1OC(C)=O` [Compound 61], the IC50 worked out at 108 ± 1.62 µM in assay [1], 130.4 ± 0.2 µM in assay [2] and 260 ± 7.65 µM in assay [3].

Consider `CC(=O)OC[C@H]1O[C@@H](Sc2ccc(NC(=O)OCc3cn(CCCOc4cccc5cccnc45)nn3)cn2)[C@H](OC(C)=O)[C@@H](OC(C)=O)[C@H]1OC(C)=O` [Compound 71], for which the IC50 in assay [1] was 90.68 ± 0.52 µM; in assay [2], 68.3 ± 3.68 µM; in assay [3], 75.26 ± 0.38 µM; in assay [4] it was 83 ± 1.37 µM; in assay [5], 20.5 ± 1.55 µM; in assay [6], 69.3 ± 2.9 µM.

With `CC(=O)OC[C@H]1O[C@@H](Sc2ccc(NC(=O)Cn3cc(COc4cccc5cccnc45)nn3)cn2)[C@H](OC(C)=O)[C@@H](OC(C)=O)[C@H]1OC(C)=O` [Compound 68], the IC50 in assay [1] worked out at 130 ± 1.31 µM; in assay [2] it was 96.3 ± 5.99 µM; in assay [3], 111 ± 2.78 µM; in assay [4] it was 96.01 ± 0.59 µM; in assay [5], 23.8 ± 0.48 µM; in assay [6], 83.6 ± 3.03 µM.

For `O=C(Cn1cc(COc2cccc3cccnc23)nn1)Nc1ccc(S[C@@H]2O[C@H](CO)[C@@H](O)[C@H](O)[C@H]2O)nc1` [Compound 69], the IC50 in assay [1] turned out to be 210.4 ± 0.55 µM; in assay [2], 144 ± 2.68 µM; in assay [3] it was 163.81 ± 0.01 µM.
